Consider 20 compounds from patent publication US11230526B1, “Cylcoalkenyl derivatives useful as agonists of the GPR120 and/or GPR40 receptors” (Janssen Pharmaceutica NV, priority 2018, dated 2022).

Common to all, as to type: cell-based
For one test, the target named is T1, human GPR40 (Homo sapiens, UniProt O14842).
T1 construct: expressed in transfected cells
Nature of the test: GPR40 calcium flux assay, human GPR40. The settings on record: HEK293 cells stably expressing GPR40; table does not say human or rat. The essentials:
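Cells preincubated 1 h at 37° C. in HBSS, 20 mM HEPES, 0.1% BSA, then Fluo 8 calcium dye 30 min at 37° C. and 15 min at room temperature.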
In general terms: Calcium assays in cells follow changes in intracellular calcium, usually with a dye or a luminescent sensor.

For test [1], the target named is T2, long form of human GPR120 (Homo sapiens, UniProt Q5NUL3).
T2 construct: host or cells: PathHunter CHO-K1 GPR120 β-Arrestin Cell Line
Nature of the test: Human GPR120 DiscoveRx PathHunter Beta-Arrestin assay, Procedure β-arrestin A. The essentials:
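PathHunter CHO-K1 cells expressing long-form human GPR120 (3000/well) were seeded overnight. They were then preincubated 60 min in HBSS with 20 mM HEPES and 0.1% BSA, pH 7.4, and exposed to compound for 90 min at 37 °C. β-Arrestin recruitment was read as β-gal complementation luminescence. EC50 came from % activity versus positive control, Hill slope fixed at 1.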

The target in the next test is T3, Human GPR120 short form (Homo sapiens, UniProt Q5NUL3).
T3 construct: expressed in transfected cells
T3 sequence (Q5NUL3 1-361): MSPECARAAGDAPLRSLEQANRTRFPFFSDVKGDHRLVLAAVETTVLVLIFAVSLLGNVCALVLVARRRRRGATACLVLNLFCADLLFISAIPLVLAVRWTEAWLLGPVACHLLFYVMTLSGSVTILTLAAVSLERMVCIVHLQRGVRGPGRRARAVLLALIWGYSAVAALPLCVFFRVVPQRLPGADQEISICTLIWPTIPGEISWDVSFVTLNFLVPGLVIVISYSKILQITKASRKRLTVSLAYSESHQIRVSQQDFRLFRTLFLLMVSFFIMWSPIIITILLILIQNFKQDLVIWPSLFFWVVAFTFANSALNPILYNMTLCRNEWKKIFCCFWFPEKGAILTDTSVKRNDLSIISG
Description: Human GPR120 calcium flux assay, Procedure Calcium B (4200 cells/well). Summed up:
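Agonist EC50 came from a four-parameter fit of RFU (Fmax−Fmin) read over 300 s on FLIPR. Cells were HEK293 stably transfected with human GPR120 (NM_001195755.1) at 4200 per well, serum-starved 1 h and loaded with Fluo-4 NW dye with probenecid before ligand addition.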

T2 sequence (Q5NUL3 1-377 isoform Q5NUL3-1): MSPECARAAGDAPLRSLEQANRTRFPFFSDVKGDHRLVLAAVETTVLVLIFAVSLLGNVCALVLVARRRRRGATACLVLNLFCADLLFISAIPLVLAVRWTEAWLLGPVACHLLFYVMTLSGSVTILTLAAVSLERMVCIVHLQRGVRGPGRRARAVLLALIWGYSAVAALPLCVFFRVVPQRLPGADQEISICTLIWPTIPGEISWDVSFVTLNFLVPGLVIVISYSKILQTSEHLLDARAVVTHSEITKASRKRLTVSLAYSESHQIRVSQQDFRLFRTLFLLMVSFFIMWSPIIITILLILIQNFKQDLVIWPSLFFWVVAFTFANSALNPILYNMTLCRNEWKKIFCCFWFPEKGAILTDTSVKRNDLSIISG
T2 sequence (P32121 whole entry partner): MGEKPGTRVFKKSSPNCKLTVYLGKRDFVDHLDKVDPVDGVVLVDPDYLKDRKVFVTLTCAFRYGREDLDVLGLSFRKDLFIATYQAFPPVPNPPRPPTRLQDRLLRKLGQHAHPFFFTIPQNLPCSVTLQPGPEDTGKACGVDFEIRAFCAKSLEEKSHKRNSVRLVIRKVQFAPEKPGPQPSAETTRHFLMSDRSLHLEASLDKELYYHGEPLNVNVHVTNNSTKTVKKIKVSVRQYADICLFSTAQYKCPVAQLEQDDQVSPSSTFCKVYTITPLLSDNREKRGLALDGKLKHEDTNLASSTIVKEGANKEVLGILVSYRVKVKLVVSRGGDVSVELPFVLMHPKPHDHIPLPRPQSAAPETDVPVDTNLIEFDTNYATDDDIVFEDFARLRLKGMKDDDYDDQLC
T1 sequence (O14842 whole entry): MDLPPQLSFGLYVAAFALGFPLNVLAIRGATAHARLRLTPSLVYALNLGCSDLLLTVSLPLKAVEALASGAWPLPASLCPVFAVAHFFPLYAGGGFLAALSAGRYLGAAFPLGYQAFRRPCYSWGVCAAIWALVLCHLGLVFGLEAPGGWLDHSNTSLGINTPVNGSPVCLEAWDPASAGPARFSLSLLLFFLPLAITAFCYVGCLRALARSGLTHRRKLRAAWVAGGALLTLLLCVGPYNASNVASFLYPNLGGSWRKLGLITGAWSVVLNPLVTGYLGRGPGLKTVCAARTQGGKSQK

The EC50 is the midpoint of the concentration-response curve. As to `O=C(O)CCc1ccc(OCC2=C(c3ccc(F)cc3)CC(F)(F)C2)cc1` [Compound 228, 3-[4-[[4,4-difluoro-2-(4-fluorophenyl)cyclopenten-1-yl]methoxy]phenyl]Propanoic Acid], the values for the EC50 (on human GPR40; in test [1]; on Human GPR120 short form) were 4930 nM, 238 nM and 124 nM, respectively.

Turning to `O=C(O)CCc1ccc(OCC2=C(c3ccc(F)cc3)CCC(F)(F)C2)cc1C(F)(F)F` [Compound 489, 3-[4-[[5,5-difluoro-2-(4-fluorophenyl)cyclohexen-1-yl]methoxy]-2-(trifluoromethyl)phenyl]Propanoic Acid], the EC50 at human GPR40 came to 825 nM; in test [1], 312 nM; at Human GPR120 short form, 173 nM.

`Cc1c(CCC(=O)O)ccc(OCC2=C(c3ccc(F)cc3)CCC(F)(F)C2)c1C` [Compound 497, 3-[4-[[5,5-difluoro-2-(4-fluorophenyl)cyclohexen-1-yl]methoxy]-2,3-dimethyl-phenyl]Propanoic Acid]: the EC50 is more than 5000 nM at human GPR40, 122 nM in test [1] and 75 nM at Human GPR120 short form.

As to `Cc1cc(CCC(=O)O)ccc1OCC1=C(c2ccc(F)cc2)CCC(F)(F)C1` [Compound 498, 3-[4-[[5,5-difluoro-2-(4-fluorophenyl)cyclohexen-1-yl]methoxy]-3-methyl-phenyl]Propanoic Acid], the values for the EC50 (on human GPR40; in test [1]; on Human GPR120 short form) were more than 5000 nM, 219 nM and 96 nM, respectively.

On to `O=C(O)CCc1ccc(OCC2=C(c3ccc(F)cc3)CCC(F)(F)C2)cc1` [Compound 499, 3-[4-[[5,5-difluoro-2-(4-fluorophenyl)cyclohexen-1-yl]methoxy]phenyl]Propanoic Acid], for which the EC50 on human GPR40 was more than 5000 nM; in test [1] it was 132 nM; at Human GPR120 short form it was 215 nM.

In the case of `Cc1c(CCC(=O)O)ccc(OCC2=C(c3ccc(Cl)cc3)CCC(C(C)C)C2)c1C` (stereo not drawn) [Compound 501, 3-[4-[[2-(4-chlorophenyl)-5-isopropyl-cyclohexen-1-yl]methoxy]-2,3-dimethyl-phenyl]Propanoic Acid], the EC50 on human GPR40 is more than 5000 nM; in test [1] it was 155 nM; at Human GPR120 short form it was 364 nM.

Take `CCC1CCC(c2ccc(Cl)cc2)=C(COc2ccc(CCC(=O)O)c(C)c2C)C1` (stereo not drawn) [Compound 502, 3-[4-[[2-(4-chlorophenyl)-5-ethyl-cyclohexen-1-yl]methoxy]-2,3-dimethyl-phenyl]Propanoic Acid]: the EC50 at human GPR40 is more than 5000 nM; in test [1], 192 nM; at Human GPR120 short form, 147 nM.

As for `Cc1cc(OCC2=C(c3ccc(F)cc3)CCC(F)(F)C2)ccc1CCC(=O)O` [Compound 518, 3-[4-[[5,5-difluoro-2-(4-fluorophenyl)cyclohexen-1-yl]methoxy]-2-methyl-phenyl]Propanoic Acid], the EC50 at human GPR40 amounted to 3750 nM; in test [1], 639 nM; on Human GPR120 short form it was 255 nM.

In the case of `Cc1cc(OCC2=C(c3ccc(Cl)cc3)CCC(F)(F)C2)ccc1CCC(=O)O` [Compound 519, 3-[4-[[2-(4-chlorophenyl)-5,5-difluoro-cyclohexen-1-yl]methoxy]-2-methyl-phenyl]Propanoic Acid], the EC50 was determined as 3310 nM at human GPR40, 772 nM in test [1] and 222 nM at Human GPR120 short form.

In the case of `CCC1CCC(COc2ccc(CCC(=O)O)c(C)c2C)=C(c2ccc(Cl)cc2)C1` (stereo not drawn) [Compound 522, 3-[4-[[2-(4-chlorophenyl)-4-ethyl-cyclohexen-1-yl]methoxy]-2,3-dimethyl-phenyl]Propanoic Acid], the EC50 at human GPR40 was more than 5000 nM; in test [1], 853 nM; at Human GPR120 short form, 714 nM.

Regarding `Cc1ccc(C2=C(COc3c(F)cc(CCC(=O)O)cc3F)CC(F)(F)CC2)cc1F` [Compound 525, 3-[4-[[5,5-difluoro-2-(3-fluoro-4-methyl-phenyl)cyclohexen-1-yl]methoxy]-3,5-difluoro-phenyl]Propanoic Acid], the EC50 stood at 4030 nM at human GPR40, 121 nM in test [1] and 165 nM on Human GPR120 short form.

For `Cc1ccc(C2=C(COc3ccc(CCC(=O)O)c(C)c3C)CC(F)(F)CC2)cc1F` [Compound 529, 3-[4-[[5,5-difluoro-2-(3-fluoro-4-methyl-phenyl)cyclohexen-1-yl]methoxy]-2,3-dimethyl-phenyl]Propanoic Acid], the EC50 is more than 5000 nM on human GPR40, 136 nM in test [1] and 156 nM at Human GPR120 short form.

On to `Cc1ccc(C2=C(COc3ccc(CCC(=O)O)cc3C)CC(F)(F)CC2)cc1F` [Compound 530, 3-[4-[[5,5-difluoro-2-(3-fluoro-4-methyl-phenyl)cyclohexen-1-yl]methoxy]-3-methyl-phenyl]Propanoic Acid], for which the EC50 on human GPR40 is more than 5000 nM; in test [1], 73 nM; at Human GPR120 short form, 68 nM.

On to `Cc1cc(CCC(=O)O)ccc1OCC1=C(c2ccc(F)c(F)c2)CCC(F)(F)C1` [Compound 532, 3-[4-[[2-(3,4-difluorophenyl)-5,5-difluoro-cyclohexen-1-yl]methoxy]-3-methyl-phenyl]Propanoic Acid], for which the EC50 on human GPR40 was more than 5000 nM; in test [1], 187 nM; at Human GPR120 short form, 133 nM.

As to `O=C(O)CCc1cc(F)c(OCC2=C(c3ccc(F)c(F)c3)CCC(F)(F)C2)c(F)c1` [Compound 533, 3-[4-[[2-(3,4-difluorophenyl)-5,5-difluoro-cyclohexen-1-yl]methoxy]-3,5-difluoro-phenyl]Propanoic Acid], the EC50 was more than 5000 nM at human GPR40, 532 nM in test [1] and 309 nM at Human GPR120 short form.

For `Cc1c(CCC(=O)O)ccc(OCC2=C(c3ccc(F)cc3F)CCC(F)(F)C2)c1C` [Compound 534, 3-[4-[[2-(2,4-difluorophenyl)-5,5-difluoro-cyclohexen-1-yl]methoxy]-2,3-dimethyl-phenyl]Propanoic Acid], the values for the EC50 (on human GPR40; in test [1]; on Human GPR120 short form) were more than 5000 nM, 157 nM and 96 nM, respectively.

For the compound `Cc1cc(CCC(=O)O)ccc1OCC1=C(c2ccc(F)cc2F)CCC(F)(F)C1` [Compound 535, 3-[4-[[2-(2,4-difluorophenyl)-5,5-difluoro-cyclohexen-1-yl]methoxy]-3-methyl-phenyl]Propanoic Acid], the EC50 at human GPR40 was more than 5000 nM; in test [1] it was 108 nM; on Human GPR120 short form, 120 nM.

Consider `O=C(O)CCc1cc(F)c(OCC2=C(c3ccc(F)cc3F)CCC(F)(F)C2)c(F)c1` [Compound 536, 3-[4-[[2-(2,4-difluorophenyl)-5,5-difluoro-cyclohexen-1-yl]methoxy]-3,5-difluoro-phenyl]Propanoic Acid], for which the EC50 on human GPR40 was more than 5000 nM; in test [1], 215 nM; on Human GPR120 short form it was 207 nM.

`Cc1c(CCC(=O)O)ccc(OCC2=C(c3ccccc3)CCC(F)(F)C2)c1C` [Compound 537, 3-[4-[(5,5-difluoro-2-phenyl-cyclohexen-1-yl)methoxy]-2,3-dimethyl-phenyl]Propanoic Acid]: the EC50 at human GPR40 was more than 5000 nM; in test [1], 161 nM; on Human GPR120 short form it was 83 nM.

Consider `O=C(O)CCc1cc(F)c(OCC2=C(c3ccccc3)CCC(F)(F)C2)c(F)c1` [Compound 539, 3-[4-[(5,5-difluoro-2-phenyl-cyclohexen-1-yl)methoxy]-3,5-difluoro-phenyl]Propanoic Acid], for which the EC50 at human GPR40 is more than 5000 nM; in test [1], 292 nM; on Human GPR120 short form, 192 nM.
